One may read the EC50 as the concentration at which the effect is half-maximal.

SMILES strings stand for the structures. A value given as a limit tells only on which side of the number the result lay.

Chain of TLR2 (O60603 21-784): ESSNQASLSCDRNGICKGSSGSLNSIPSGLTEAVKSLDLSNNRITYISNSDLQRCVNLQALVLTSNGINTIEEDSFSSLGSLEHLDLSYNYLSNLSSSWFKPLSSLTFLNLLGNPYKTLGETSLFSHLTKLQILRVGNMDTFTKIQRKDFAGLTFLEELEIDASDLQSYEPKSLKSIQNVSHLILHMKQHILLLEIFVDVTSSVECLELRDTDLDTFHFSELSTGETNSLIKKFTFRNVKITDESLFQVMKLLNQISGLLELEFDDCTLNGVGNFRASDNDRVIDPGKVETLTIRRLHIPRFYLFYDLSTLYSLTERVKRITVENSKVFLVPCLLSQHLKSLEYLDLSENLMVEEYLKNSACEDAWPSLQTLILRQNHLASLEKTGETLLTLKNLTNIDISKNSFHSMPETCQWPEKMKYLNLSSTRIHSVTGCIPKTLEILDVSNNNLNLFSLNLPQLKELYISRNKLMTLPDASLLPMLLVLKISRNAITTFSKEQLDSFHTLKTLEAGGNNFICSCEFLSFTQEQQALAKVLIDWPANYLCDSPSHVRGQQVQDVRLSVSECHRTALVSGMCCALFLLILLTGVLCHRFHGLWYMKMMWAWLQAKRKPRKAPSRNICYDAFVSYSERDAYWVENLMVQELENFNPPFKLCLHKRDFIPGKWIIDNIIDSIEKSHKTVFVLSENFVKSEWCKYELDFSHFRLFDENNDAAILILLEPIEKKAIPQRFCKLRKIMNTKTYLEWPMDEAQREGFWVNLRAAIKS

The first test addresses TLR2 (Homo sapiens, UniProt O60603). In words: TLR2 agonist screening assay, HEK-Blue TLR2 reporter cell line (NF-kB-driven SEAP, absorbance at 600 nm). Format: cell-based. Also on record: host or cells: HEK-293 (HEK-Blue TLR2 reporter cell line). The conditions noted are these: HEK-Blue TLR2 reporter cells, agonist mode; average of all runs (Table 3). The text has this:
TLRs are a class of cell-surface receptors expressed on many different cell types that recognize conserved structural motifs present on pathogen-derived molecules. TLR2 recognizes bacteria-derived lipopeptides. […] Provided herein is an assay to identify and characterize the binding affinities of novel TLR2 agonists.
The in vitro TLR2 assay consists of a cell line that responds to TLR2 engagement by producing a factor that elicits a color change in the culture media and can be readily measured by various colorimetric detection methods. This assay enables the identification of existing and novel compounds that engage TLR2 and, by virtue of compound dilution, to approximate the binding affinity of these compounds for eliciting a TLR2 signal.
The TLR2 screening assay was developed from the HEK-Blue TLR2 reporter cell line that is commercially available from Invivogen (San Diego, CA). The reporter cell line consists of HEK-293 embryonic kidney cells that have been engineered to express TLR2 and with an NF-kB promoter driving expression of Secreted Alkaline Phosphatase (SEAP). Upon engagement of TLR2, downstream signaling results in activation of NF-kB pathway activation and secretion of SEAR In the presence of the detection reagent in the tissue culture media, SEAP mediates a color change from clear to indigo that is readily assessed by measuring absorbance at 600 nm.
HEK-Blue TLR2 reporter cells are cultured according to manufacturer's specifications until a confluence of 70-90%, at which point the cells are trypsinized, counted, and plated into 96-well plates at approximately 40,000 cells per well. Cells are cultured overnight and the TLR2 assay is performed 16-24 hours post-plating into 96 well plates.
Compounds are diluted from stocks dissolved in DMSO and a 1% DMSO final concentration is maintained in all testing wells.
The assay consists of removing the cell culture media after cells have been cultured overnight and replacing the media with HEK-Blue Detection media with TLR2 agonists at indicated dilution schemes. The Detection media contains a chemical substrate that turns from clear to indigo when acted upon by SEAP. The HEK-Blue cells are then cultured overnight in Detection media with diluted compounds. After overnight culture with agonists, each well of the plate is assayed in a plate reader at 600 nanometer absorbance.
• (1) HEK-Blue TLR2 cells are diluted in complete DME culture medium and plated into 96-well plates at 40,000 cells per well and cultured overnight. • (2) After 16-24 hours in culture, the media is removed and replaced with 200 microliters per well of HEK-Blue Detection media. • (3) TLR2 agonists are diluted 100-fold from DMSO stocks into each well, yielding a final DMSO concentration of 1% in all wells. • (3) Treated cells are cultured overnight and the following day are assayed in plate reader for Absorbance at 600 nanometer.
Following assay measurements utilizing either HEK-Blue detection or cytokine release, all data is analyzed with the GraphPad Prism8 statistical package to determine EC50, binding and activity metrics for the TLR2 modulators.
Data is generated using protocol described in Example 44.
In turn, `CCCCCCCC(=O)N1CCN(C(=O)c2ccc(C(=O)N3C[C@@H](C(=O)N[C@H]4C[C@@H]4c4ccccc4)[C@H](C(=O)N[C@H]4C[C@@H]4c4ccccc4)C3)cc2)CC1C(=O)NCCCC` (mixture of isomers) [Compound 046, (3S,4S)-1-(4-(3-(butylcarbamoyl)-4-octanoylpiperazine-1-carbonyl)benzoyl)-N3,N4-bis((1S,2R)-2-phenylcyclopropyl)pyrrolidine-3,4-dicarboxamide] gave a half-maximal effective concentration (EC50) of 51 to 350 nM.

The compound `CCCCCCNC(=O)C1CN(C(=O)c2ccc(C(=O)N3C[C@@H](C(=O)N[C@H]4C[C@@H]4c4ccccc4)[C@H](C(=O)N[C@H]4C[C@@H]4c4ccccc4)C3)cc2)CCN1C(=O)CCCCCC` (mixture of isomers) [Compound 056, (3S,4S)-1-(4-(4-heptanoyl-3-(hexylcarbamoyl)piperazine-1-carbonyl)benzoyl)-N3,N4-bis((1S,2R)-2-phenylcyclopropyl)pyrrolidine-3,4-dicarboxamide] showed a concentration for a half-maximal effect (EC50) of 0.1 to 50 nM.

The compound `O=C(N[C@H]1C[C@@H]1c1ccccc1)[C@@H]1CN(C(=O)c2cccc(C(=O)N3C[C@@H](C(=O)N[C@H]4C[C@@H]4c4ccccc4)[C@H](C(=O)N[C@H]4C[C@@H]4c4ccccc4)C3)c2)C[C@H]1C(=O)N[C@H]1C[C@@H]1c1ccccc1` (racemic) [Compound 001] registered an EC50 greater than 1000 nM.

Consider `CCCCCCNC(=O)[C@@H]1CN(C(=O)c2ccc(C(=O)N3C[C@@H](C(=O)N[C@H]4C[C@@H]4c4ccccc4)[C@H](C(=O)N[C@H]4C[C@@H]4c4ccccc4)C3)cc2)C[C@@H]1O` (racemic) [Compound 034, (3S,4S)-1-(4-((3R*,4R*)-3-(hexylcarbamoyl)-4-hydroxypyrrolidine-1-carbonyl)benzoyl)-N3,N4-bis((1S,2R)-2-phenylcyclopropyl)pyrrolidine-3,4-dicarboxamide], for which the half-maximal effective concentration (EC50) was 351 to 1000 nM.

For `CCCCCCCCCCCCCCNC(=O)[C@@H]1CN(C(=O)c2ccc(C(=O)N3C[C@@H](C(=O)N[C@H]4C[C@@H]4c4ccccc4)[C@H](C(=O)N[C@H]4C[C@@H]4c4ccccc4)C3)cc2)C[C@H]1O` (racemic) [Compound 045, (3S,4S)-1-(4-((3S*,4R*)-3-hydroxy-4-(tetradecylcarbamoyl)pyrrolidine-1-carbonyl)benzoyl)-N3,N4-bis((1S,2R)-2-phenylcyclopropyl)pyrrolidine-3,4-dicarboxamide], the EC50 was 351 to 1000 nM.

As for `CCCCCCNC(=O)[C@@H]1CN(C(=O)c2ccc(C(=O)N3C[C@@H](C(=O)N[C@H]4C[C@@H]4c4ccccc4)[C@H](C(=O)N[C@H]4C[C@@H]4c4ccccc4)C3)cc2)C[C@H]1O` (relative stereo) [Compound 033, (3S,4S)-1-(4-((3R*,4S*)-3-(hexylcarbamoyl)-4-hydroxypyrrolidine-1-carbonyl)benzoyl)-N3,N4-bis((1S,2R)-2-phenylcyclopropyl)pyrrolidine-3,4-dicarboxamide], the half-maximal effective concentration (EC50) fell in the range of 51 to 350 nM.

`CCCCCCNC(=O)[C@@H]1C[C@H](C(=O)NCCCCCC)CN(C(=O)c2ccc(C(=O)N3C[C@@H](C(=O)N[C@H]4C[C@@H]4c4ccccc4)[C@H](C(=O)N[C@H]4C[C@@H]4c4ccccc4)C3)cc2)C1` (relative stereo) [Compound 038, (3R*,5S*)-1-(4-((3S,4S)-3,4-bis(((1S,2R)-2-phenylcyclopropyl)carbamoyl)pyrrolidine-1-carbonyl)benzoyl)-N3,N5-dihexylpiperidine-3,5-dicarboxamide] had an EC50 of 351 to 1000 nM.

The same test, now with this note: HEK-Blue TLR2 reporter cells, agonist mode; average of all runs (Table 4).
As to `CCCCCCCC[C@@H]1CN(C(=O)c2ccc(C(=O)N3C[C@@H](C(=O)N[C@H]4C[C@@H]4c4ccccc4)[C@H](C(=O)N[C@H]4C[C@@H]4c4ccccc4)C3)cc2)C[C@H]1C(=O)NCCCCCC` (racemic) [Compound 085, (3S,4S)-1-(4-((3S*,4S*)-3-(hexylcarbamoyl)-4-octylpyrrolidine-1-carbonyl)benzoyl)-N3,N4-bis((1S,2R)-2-phenylcyclopropyl)pyrrolidine-3,4-dicarboxamide], the 50% effective concentration (EC50) is 0.1 to 50 nM.

For the origin of these results see patent publication US11951094B2, “TLR2 modulator compounds, pharmaceutical compositions and uses thereof” (Axial Therapeutics, Inc., priority 2020, dated 2024).
